What is called residual activity is the signal under treatment as a percentage of the control signal.

Drawing on ChEMBL document CHEMBL1152560, “Substituted 2-arylbenzothiazoles as kinase inhibitors: hit-to-lead optimization” (Bioorg Med Chem, 2009), this text covers residual activity for three compounds.

Experiment [1] has as its target G protein-coupled receptor kinase 6 (Homo sapiens) (UniProt P43250). Kind of experiment: Residual activity of GRK6 at 1 uM by microplate scintillation counting.
Experiment [2] addresses Rho-associated protein kinase 1 (Homo sapiens) (UniProt Q13464). Kind of experiment: Residual activity of ROCK1 at 1 uM by microplate scintillation counting.
Experiment [3] addresses T1, Megakaryocyte-associated tyrosine-protein kinase (Homo sapiens) (UniProt P42679).
T1 sequence (whole entry): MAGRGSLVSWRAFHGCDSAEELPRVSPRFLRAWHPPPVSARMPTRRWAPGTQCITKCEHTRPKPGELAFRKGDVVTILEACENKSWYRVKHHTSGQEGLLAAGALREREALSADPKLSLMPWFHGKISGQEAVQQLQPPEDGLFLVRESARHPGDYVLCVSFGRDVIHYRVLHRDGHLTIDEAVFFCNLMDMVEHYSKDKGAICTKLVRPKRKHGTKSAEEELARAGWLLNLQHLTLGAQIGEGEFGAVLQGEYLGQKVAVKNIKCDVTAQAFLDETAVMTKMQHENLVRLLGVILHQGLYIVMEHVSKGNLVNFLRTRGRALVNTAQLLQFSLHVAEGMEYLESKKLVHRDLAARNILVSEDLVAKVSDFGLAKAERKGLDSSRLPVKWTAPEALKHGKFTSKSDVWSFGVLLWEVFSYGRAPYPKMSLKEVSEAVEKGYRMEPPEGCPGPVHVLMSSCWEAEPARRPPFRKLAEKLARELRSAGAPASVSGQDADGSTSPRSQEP
Kind of experiment: Residual activity of MATK at 1 uM by microplate scintillation counting.

For experiment [4], the target named is Leukocyte tyrosine kinase receptor (Homo sapiens) (UniProt P29376). Kind of experiment: Residual activity of LTK at 0.1 uM by microplate scintillation counting.
Leukocyte tyrosine kinase receptor (Homo sapiens), sequence (P29376 whole entry): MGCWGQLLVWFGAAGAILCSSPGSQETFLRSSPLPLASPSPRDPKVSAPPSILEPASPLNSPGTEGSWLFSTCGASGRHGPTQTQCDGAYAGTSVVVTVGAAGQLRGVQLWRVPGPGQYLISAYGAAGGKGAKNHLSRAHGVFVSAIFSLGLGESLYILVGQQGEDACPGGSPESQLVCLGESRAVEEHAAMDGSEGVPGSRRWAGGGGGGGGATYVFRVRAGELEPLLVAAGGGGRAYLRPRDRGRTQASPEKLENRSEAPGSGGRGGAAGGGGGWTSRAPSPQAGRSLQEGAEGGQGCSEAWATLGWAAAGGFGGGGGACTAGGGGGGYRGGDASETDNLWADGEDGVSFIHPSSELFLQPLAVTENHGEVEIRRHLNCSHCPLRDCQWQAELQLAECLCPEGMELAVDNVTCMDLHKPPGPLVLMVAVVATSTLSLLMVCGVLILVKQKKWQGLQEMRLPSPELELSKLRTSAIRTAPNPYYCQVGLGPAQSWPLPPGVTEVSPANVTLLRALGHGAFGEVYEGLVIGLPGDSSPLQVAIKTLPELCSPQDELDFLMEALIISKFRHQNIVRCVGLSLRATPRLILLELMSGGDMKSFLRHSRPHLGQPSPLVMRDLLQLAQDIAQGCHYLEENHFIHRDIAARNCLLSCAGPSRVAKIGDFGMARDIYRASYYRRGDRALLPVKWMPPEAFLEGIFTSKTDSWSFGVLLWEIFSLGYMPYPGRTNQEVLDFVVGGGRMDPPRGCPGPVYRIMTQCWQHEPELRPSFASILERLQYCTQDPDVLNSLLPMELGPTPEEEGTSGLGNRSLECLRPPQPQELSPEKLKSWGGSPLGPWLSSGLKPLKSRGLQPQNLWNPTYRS
For experiment [5], the target named is Receptor-type tyrosine-protein kinase FLT3 (Homo sapiens) (UniProt P36888). Kind of experiment: Residual activity of wild type FLT3 at 1 uM by microplate scintillation counting.
Receptor-type tyrosine-protein kinase FLT3 (Homo sapiens), sequence (P36888 whole entry, canonical isoform): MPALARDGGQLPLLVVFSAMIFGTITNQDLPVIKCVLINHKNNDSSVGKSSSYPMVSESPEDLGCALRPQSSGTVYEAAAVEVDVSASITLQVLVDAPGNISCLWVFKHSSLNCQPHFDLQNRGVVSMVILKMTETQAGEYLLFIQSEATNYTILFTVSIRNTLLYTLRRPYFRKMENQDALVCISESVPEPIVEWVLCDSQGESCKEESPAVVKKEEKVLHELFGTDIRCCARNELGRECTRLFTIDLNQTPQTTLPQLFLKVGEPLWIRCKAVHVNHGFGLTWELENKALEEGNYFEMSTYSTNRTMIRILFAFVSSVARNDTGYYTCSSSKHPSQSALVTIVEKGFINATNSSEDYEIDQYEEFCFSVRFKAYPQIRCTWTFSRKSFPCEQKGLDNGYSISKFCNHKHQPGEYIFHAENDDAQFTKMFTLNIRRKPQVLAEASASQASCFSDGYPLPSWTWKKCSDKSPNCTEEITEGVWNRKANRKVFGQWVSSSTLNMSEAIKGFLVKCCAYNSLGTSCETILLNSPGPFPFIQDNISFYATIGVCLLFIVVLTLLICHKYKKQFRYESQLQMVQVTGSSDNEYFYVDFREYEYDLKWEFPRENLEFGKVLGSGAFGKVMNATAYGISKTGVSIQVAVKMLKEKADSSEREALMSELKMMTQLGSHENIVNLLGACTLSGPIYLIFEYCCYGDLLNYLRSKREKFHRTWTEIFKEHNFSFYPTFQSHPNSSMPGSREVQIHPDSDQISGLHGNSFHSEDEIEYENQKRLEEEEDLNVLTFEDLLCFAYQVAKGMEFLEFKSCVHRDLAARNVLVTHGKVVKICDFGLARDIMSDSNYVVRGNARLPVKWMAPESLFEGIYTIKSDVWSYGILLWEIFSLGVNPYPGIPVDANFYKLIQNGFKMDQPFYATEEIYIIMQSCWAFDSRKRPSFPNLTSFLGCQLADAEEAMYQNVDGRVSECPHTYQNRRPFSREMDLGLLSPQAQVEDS
Experiment [6] deals with Casein kinase I isoform gamma-3 (Homo sapiens) (UniProt Q9Y6M4). Kind of experiment: Residual activity of CK1gamma3 at 1 uM by microplate scintillation counting.
Casein kinase I isoform gamma-3 (Homo sapiens), sequence (Q9Y6M4 whole entry, looked up, canonical isoform): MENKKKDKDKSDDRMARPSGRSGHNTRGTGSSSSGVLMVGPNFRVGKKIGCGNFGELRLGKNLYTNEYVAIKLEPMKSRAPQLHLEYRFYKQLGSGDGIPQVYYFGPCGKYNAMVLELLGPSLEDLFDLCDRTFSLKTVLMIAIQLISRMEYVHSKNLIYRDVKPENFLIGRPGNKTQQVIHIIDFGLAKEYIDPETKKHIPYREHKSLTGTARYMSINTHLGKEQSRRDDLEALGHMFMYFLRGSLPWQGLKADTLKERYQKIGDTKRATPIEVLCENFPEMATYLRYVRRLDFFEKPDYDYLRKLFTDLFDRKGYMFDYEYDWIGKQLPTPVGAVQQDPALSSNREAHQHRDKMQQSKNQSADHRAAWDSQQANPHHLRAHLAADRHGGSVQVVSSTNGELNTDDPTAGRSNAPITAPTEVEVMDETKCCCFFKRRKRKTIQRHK
The target of experiment [7] is Tyrosine-protein kinase Lyn (Homo sapiens) (UniProt P07948). Kind of experiment: Residual activity of LYN at 10 uM by microplate scintillation counting.
Tyrosine-protein kinase Lyn (Homo sapiens), sequence (P07948 2-512 limits assumed): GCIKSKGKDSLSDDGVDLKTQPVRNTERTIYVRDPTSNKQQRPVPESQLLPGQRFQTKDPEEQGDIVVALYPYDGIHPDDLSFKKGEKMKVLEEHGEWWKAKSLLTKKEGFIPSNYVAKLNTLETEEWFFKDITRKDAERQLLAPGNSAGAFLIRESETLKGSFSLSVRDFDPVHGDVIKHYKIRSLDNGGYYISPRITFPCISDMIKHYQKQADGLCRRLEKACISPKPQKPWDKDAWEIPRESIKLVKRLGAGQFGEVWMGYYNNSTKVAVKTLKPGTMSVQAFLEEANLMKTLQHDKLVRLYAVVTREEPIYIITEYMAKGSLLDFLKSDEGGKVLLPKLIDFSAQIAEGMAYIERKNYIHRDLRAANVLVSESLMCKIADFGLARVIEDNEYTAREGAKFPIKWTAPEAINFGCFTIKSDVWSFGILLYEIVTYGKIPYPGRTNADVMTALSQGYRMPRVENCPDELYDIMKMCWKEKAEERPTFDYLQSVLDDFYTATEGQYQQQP
Experiment [8] addresses T2, Discoidin domain-containing receptor 2 (Homo sapiens) (UniProt Q16832).
T2 sequence (whole entry): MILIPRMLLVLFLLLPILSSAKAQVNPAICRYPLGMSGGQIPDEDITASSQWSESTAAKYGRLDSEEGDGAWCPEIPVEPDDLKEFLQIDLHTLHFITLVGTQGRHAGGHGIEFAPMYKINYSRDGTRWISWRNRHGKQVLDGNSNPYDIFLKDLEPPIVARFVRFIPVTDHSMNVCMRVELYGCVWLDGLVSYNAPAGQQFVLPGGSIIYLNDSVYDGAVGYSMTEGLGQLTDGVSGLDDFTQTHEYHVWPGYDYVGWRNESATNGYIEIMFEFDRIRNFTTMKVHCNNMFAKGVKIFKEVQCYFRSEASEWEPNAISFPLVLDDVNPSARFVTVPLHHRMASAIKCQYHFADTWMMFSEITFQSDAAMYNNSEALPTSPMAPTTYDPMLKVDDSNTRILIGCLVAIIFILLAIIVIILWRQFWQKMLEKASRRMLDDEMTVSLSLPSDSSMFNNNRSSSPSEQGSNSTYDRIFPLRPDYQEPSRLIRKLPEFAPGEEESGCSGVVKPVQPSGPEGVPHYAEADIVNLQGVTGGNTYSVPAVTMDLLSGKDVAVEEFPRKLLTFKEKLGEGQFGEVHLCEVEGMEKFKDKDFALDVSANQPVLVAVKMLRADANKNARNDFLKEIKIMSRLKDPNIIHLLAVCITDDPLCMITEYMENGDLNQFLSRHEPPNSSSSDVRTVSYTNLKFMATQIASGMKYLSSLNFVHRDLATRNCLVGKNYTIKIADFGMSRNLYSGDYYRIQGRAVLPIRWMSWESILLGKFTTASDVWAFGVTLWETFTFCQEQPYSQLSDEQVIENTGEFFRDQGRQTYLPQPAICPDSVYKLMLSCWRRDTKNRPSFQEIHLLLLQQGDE
Kind of experiment: Residual activity of DDR2 at 0.1 uM by microplate scintillation counting.

Experiment [9] deals with T3, Ephrin type-B receptor 2 (Homo sapiens) (UniProt P29323).
T3 sequence (whole entry): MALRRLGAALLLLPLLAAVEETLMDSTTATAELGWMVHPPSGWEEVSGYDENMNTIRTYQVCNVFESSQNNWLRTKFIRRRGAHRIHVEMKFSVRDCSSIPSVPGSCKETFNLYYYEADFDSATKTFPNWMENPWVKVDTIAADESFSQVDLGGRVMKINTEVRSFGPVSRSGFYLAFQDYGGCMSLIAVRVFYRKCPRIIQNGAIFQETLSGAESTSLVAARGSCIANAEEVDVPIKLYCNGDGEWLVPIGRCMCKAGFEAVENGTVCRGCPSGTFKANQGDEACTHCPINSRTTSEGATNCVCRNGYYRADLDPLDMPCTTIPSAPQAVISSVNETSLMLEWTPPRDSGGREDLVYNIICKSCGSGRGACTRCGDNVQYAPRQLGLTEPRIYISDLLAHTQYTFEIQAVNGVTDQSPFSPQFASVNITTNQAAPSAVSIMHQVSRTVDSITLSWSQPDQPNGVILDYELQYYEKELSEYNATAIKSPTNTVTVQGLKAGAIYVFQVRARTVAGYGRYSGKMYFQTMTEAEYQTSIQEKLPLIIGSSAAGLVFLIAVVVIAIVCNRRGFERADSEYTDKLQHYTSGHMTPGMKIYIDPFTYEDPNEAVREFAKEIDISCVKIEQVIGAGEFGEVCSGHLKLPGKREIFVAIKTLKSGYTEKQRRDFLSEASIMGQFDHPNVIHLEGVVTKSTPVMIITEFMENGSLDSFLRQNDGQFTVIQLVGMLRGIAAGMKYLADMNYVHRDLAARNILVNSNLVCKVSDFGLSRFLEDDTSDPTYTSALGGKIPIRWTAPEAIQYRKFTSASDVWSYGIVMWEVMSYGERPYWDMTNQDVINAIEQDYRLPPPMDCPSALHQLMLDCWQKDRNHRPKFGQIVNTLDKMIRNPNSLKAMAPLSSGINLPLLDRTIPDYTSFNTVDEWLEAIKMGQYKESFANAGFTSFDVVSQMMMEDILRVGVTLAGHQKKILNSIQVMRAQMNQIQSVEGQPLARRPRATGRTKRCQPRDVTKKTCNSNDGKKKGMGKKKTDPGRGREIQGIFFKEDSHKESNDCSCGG
Kind of experiment: Residual activity of EPHB2 at 10 uM by microplate scintillation counting.

Rho-associated protein kinase 1 (Homo sapiens), sequence (Q13464 2-1354 limits assumed): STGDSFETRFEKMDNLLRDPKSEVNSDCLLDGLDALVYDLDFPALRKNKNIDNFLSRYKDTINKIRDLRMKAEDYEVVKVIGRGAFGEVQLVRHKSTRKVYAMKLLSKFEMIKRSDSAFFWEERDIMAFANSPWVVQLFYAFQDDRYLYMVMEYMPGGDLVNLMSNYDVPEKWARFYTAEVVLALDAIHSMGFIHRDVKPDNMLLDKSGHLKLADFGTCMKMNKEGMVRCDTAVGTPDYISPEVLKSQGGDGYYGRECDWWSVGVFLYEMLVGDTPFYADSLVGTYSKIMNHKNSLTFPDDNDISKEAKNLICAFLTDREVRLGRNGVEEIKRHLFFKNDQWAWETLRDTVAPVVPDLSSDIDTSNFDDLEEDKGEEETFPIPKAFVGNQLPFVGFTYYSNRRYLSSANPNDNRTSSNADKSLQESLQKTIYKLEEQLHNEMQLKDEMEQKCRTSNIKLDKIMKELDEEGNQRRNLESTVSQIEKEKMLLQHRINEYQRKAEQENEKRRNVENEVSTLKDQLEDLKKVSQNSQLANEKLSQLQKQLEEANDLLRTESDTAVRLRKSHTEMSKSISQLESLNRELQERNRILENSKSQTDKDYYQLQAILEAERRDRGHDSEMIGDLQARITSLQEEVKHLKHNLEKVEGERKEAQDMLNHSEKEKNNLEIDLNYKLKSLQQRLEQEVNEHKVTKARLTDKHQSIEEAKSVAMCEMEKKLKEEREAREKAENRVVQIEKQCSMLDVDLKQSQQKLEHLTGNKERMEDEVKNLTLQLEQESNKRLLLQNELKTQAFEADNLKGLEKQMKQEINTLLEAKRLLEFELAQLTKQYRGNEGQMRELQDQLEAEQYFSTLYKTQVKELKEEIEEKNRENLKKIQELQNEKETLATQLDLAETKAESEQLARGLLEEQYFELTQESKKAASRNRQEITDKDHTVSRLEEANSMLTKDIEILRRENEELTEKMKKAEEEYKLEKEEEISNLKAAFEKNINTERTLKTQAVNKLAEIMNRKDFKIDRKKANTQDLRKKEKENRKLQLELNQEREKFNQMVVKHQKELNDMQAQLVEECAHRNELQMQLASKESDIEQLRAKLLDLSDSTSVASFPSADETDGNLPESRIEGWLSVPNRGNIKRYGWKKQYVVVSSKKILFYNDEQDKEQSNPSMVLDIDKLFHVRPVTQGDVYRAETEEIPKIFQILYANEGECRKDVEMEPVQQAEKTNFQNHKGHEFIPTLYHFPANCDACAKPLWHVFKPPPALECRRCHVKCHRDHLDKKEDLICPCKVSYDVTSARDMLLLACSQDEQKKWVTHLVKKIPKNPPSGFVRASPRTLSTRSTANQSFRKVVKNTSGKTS
G protein-coupled receptor kinase 6 (Homo sapiens), sequence (P43250 whole entry, looked up): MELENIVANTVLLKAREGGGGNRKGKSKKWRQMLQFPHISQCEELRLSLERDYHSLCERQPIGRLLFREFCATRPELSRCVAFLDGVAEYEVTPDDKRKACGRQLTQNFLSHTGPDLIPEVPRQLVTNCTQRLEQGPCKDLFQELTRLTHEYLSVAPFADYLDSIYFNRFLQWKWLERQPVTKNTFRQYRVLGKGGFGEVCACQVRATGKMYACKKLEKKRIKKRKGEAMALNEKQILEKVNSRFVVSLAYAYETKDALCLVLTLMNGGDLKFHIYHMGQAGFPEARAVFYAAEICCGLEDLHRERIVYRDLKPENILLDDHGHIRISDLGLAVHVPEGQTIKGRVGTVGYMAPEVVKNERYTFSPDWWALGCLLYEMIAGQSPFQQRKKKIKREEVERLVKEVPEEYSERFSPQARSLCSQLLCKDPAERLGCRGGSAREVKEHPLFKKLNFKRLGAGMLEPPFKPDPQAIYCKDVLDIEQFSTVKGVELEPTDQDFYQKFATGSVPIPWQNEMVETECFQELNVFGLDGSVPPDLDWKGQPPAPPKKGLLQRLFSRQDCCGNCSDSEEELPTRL

As to `COc1cc2c(Oc3ccc(-c4nc5ccccc5s4)cc3)ncnc2cc1OCCCN1CCN(C)CC1`, the residual activity worked out at 80% in [1]; 102% in [2]; 141% in [3]; 82% in [4]; 97% in experiment [5]; 83% in [6]. In addition, the residual activity is 112% in experiment [7], 88% in experiment [8] and 18% in experiment [9].
Turning to `COc1cc2c(Oc3ccc(-c4nc5ccccc5s4)cc3)ncnc2cc1OCCCN1CCCC1`, the residual activity in experiment [1] was 90%; in experiment [2], 93%; in [3] it was 235%; in experiment [4] it was 99%; in experiment [5] it was 90%; in experiment [6], 88%. For the same compound, the results for the residual activity in experiment [7], in [8] and in experiment [9] were 142%, 97% and 35%, respectively.
As for `COc1cc2c(Oc3ccc(-c4nc5ccccc5s4)cc3F)ncnc2cc1OCCCN1CCN(C)CC1`, the residual activity worked out at 93% in experiment [1]; 105% in experiment [2]; 162% in [3]; 101% in [4]; 113% in experiment [5]; 92% in experiment [6]. The residual activity in experiment [7] was found to be 36%; in experiment [8], 93%; in [9], 16%.
